# Reference: ChEMBL document CHEMBL1201862, “PubChem BioAssay data set” (2004)
# The source made the active and inactive calls.
# What was measured:
# [1] = CFTR ΔF508 corrector activity in bronchial cells, dose response, human bronchial epithelial cells, plate reader, cherry-pick, two tests (AID 743267); type: functional, cell-based
# [2] = biological target: Oxysterols receptor LXR-beta (Homo sapiens, UniProt P55055); type: functional, cell-based;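 also: Cell-based luminescence dose-response assay of agonist activity at LXR, run as a confirmatory counterscreen to a daf-12 agonist screen; HEK293 cells with Gal4-LXR fusion and GAL4-driven luciferase reporter; agonist potency from rising luciferase signal of a Gal4-LXR reporter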
# Oxysterols receptor LXR-beta, sequence (P55055 whole entry, the tested form may be a part): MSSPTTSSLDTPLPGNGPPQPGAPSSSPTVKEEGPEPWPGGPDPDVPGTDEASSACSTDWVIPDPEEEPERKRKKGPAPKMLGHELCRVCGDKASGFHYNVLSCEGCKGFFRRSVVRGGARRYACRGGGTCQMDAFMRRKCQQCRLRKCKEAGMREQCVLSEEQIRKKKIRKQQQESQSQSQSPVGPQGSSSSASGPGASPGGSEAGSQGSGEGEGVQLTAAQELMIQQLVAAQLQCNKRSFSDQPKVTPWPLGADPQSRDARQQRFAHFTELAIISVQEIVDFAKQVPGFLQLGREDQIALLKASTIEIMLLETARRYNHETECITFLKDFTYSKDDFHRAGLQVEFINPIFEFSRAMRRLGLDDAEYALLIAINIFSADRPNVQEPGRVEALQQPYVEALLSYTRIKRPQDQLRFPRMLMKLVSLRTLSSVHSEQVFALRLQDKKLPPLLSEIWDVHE
# [3] = NIH:OVCAR-3 ovarian cancer cell cytotoxicity, dose response, PAX8 inhibitor project, plate reader, dry powder samples (AID 743044); type: functional, cell-based
# Paired box protein Pax-8 = Paired box protein Pax-8 (Homo sapiens, UniProt Q06710); assay: inhibitors of PAX8-driven TPO luciferase reporter, dose response, RMG-I cells, cherry-pick (AID 687027); type: functional, cell-based;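 also: luciferase reporter driven by Pax8 target thyroperoxidase promoter measured by SteadyGlo luminescence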
# Paired box protein Pax-8, sequence (Q06710 whole entry): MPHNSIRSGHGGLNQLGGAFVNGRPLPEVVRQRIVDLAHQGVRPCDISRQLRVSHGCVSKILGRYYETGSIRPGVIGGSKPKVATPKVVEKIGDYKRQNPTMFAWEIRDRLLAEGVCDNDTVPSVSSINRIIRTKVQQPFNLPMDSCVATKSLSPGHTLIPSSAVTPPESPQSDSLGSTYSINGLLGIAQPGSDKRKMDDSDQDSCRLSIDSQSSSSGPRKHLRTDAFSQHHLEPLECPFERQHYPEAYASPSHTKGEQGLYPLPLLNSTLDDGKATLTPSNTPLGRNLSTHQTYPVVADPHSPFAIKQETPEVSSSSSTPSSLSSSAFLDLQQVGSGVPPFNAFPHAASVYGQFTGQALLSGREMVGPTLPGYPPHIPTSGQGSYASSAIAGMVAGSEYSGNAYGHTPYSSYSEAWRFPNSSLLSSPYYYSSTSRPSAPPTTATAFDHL
# [4] = IGROV1 ovarian cancer cell cytotoxicity, dose response, PAX8 inhibitor project, plate reader, dry powder samples (AID 743043); type: functional, cell-based; conditions: IGROV-1
# [5] = cytotoxicity in OVCAR8 ovarian cancer cells, dose response, PAX8 project, cell-based, plate reader, dry powder samples (AID 743197); type: functional; conditions: OVCAR-8
# [6] = IOSE-T80 ovarian epithelial cell cytotoxicity, dose response, cytotoxicity control for PAX8 inhibitor project, plate reader, dry powder samples (AID 743045); type: functional, cell-based
# HEK293 = assay: cells; type: functional, cell-based; conditions: Homo sapiens
# [7] = biological target: T1, Nuclear receptor subfamily 0 group B member 1 (Homo sapiens, UniProt P51843); assay: Luminescence-based cell-based high throughput dose response assay for inhibitors of the orphan nuclear receptor subfamily 0, group B, member 1 (DAX1; NR0B1). [Related pubchem assays (depositor defined):AID504766, AID504790]; type: functional
# T1 sequence (P51843 whole entry): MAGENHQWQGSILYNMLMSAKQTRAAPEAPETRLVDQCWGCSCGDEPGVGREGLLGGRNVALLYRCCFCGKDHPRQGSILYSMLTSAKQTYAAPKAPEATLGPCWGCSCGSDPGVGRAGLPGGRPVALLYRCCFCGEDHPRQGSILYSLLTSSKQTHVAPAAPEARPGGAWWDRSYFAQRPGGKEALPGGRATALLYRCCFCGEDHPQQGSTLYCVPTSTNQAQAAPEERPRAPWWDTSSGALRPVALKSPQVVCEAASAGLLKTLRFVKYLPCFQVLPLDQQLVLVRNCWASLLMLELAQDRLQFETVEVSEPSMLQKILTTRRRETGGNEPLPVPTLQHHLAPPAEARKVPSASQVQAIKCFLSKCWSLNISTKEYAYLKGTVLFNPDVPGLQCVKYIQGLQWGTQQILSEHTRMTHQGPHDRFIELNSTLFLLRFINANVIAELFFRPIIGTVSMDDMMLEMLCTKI
# [8] = biological target: FAD-linked sulfhydryl oxidase ALR (Homo sapiens, UniProt P55789); assay: inhibitors of human ALR sulfhydryl oxidase, dose response, biochemical, H2O2 detection, luminescence, cherry-pick (AID 493248)
# FAD-linked sulfhydryl oxidase ALR, sequence (P55789 whole entry): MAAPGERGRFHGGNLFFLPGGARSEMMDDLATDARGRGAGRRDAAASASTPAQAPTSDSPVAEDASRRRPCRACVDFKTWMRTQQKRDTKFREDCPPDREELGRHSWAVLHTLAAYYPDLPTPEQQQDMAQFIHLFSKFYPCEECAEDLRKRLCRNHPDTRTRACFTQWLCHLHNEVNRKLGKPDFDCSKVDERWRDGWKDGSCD
# [9] = A375 melanoma cell cytotoxicity, dose response, counter-screen for MITF inhibitor project, CellTiter-Glo luminescence, dry powder, set 2 (AID 624489); type: functional, cell-based; conditions: A-375;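 also: actives are compounds lowering A375 viability meaning general cytotoxicity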
# [10] = A375 melanoma cell viability loss, dose response, counter-screen for MITF inhibitor project, CellTiter-Glo luminescence, dry powder, set 4 (AID 624364); type: functional, cell-based; conditions: A-375;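 also: A375 melanoma cells are MITF independent so this is a counter screen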
# Kallikrein-7 = Kallikrein-7 (Homo sapiens, UniProt P49862); assay: Fluorescence Intensity-based biochemical primary high throughput dose response assay to identify activators of kallikrein-7 (K7) zymogen.
# Kallikrein-7, sequence (P49862 whole entry): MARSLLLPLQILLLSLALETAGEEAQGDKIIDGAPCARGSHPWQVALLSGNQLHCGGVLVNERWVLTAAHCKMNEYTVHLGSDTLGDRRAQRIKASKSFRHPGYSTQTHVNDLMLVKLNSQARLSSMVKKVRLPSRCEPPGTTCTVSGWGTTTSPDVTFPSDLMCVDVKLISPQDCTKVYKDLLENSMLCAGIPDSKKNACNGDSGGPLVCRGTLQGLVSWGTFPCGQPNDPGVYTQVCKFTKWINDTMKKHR
# [11] = P. falciparum Dd2 growth inhibitors, dose response, SYBR Green, cherry-picked samples (AID 1159567); type: functional, cell-based
# [12] = P. falciparum Dd2 growth inhibitors, dose response, SYBR Green, dry powder samples (AID 1159566); type: functional, cell-based;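 also: potency for growth inhibition with lower SYBR green DNA signal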
# [13] = P. falciparum 3D7-ScDHODH growth inhibitors, dose response, SYBR Green, dry powder samples (AID 1159570); type: functional, cell-based;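 also: parasite growth measured after 72 hours of compound exposure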
# [14] = P. falciparum ATP4 D1247Y mutant growth inhibitors, dose response, NITD609-resistant line, SYBR Green, dry powder (AID 1159571); type: functional, cell-based;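 also: parasites synchronized at ring stage by sorbitol before testing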
# [15] = HeLa 2N DNA content increase, dose response, cell-based, IC50 (AID 1117349); type: functional
# [16] = HeLa 4N DNA content increase, dose response, cell-based, IC50 (AID 1117351); type: functional
compound,measurement,setting,value
NS(=O)(=O)c1ccc(S(=O)(=O)N(CCc2ccccc2)Cc2ccccn2)cc1,AC50,[1],< 0.0235 µM (active)
Clc1ccccc1NN=Cc1ccccn1,EC50,cells,> 67.6 µM (inactive)
same,EC50,[2],> 67.6 µM (inactive)
C[C@@H]1CCCCO[C@H](CN(C)C(=O)Nc2ccc(C(F)(F)F)cc2)[C@@H](C)CN([C@@H](C)CO)C(=O)c2cc(NS(=O)(=O)c3ccc(Cl)cc3)ccc2O1,AC50,[3],29.1 µM (active)
same,AC50,Paired box protein Pax-8,3.44 µM (active)
same,AC50,[4],46.1 µM (active)
same,AC50,[5],36.2 µM (active)
COc1ccc(-c2ccc3c(c2)[C@H]2[C@H](CCN2S(=O)(=O)c2ccc(OC)cc2)[C@@H](CO)N3C)cc1,AC50,[3],15.6 µM (active)
same,AC50,Paired box protein Pax-8,9.39 µM (active)
same,AC50,[6],38.1 µM (active)
same,AC50,[5],34.7 µM (active)
Cc1ccc(N/N=C(\C#N)C(=N)N2CCCCC2)cc1,IC50,HEK293,> 0.278 µM (active)
same,EC50,cells,> 67.6 µM (inactive)
same,IC50,[7],> 67.5 µM (inactive)
same,EC50,[2],> 67.6 µM (inactive)
same,AC50,[8],0.228 µM (active)
C=CCNC1=C(N2CCCCC2)C(=O)c2ccccc2C1=O,AC50,[9],5.82 µM (active)
same,AC50,[10],29.1 µM (active)
COc1cccc2cccc(/C=N/n3cnnc3)c12,EC50,Kallikrein-7,> 69.5 µM (inactive)
CCS(=O)(=O)N1CCC2(CC1)CN(S(=O)(=O)c1ccc(C)cc1)[C@@H](CO)c1[nH]c3cc(OC)ccc3c12,AC50,[11],1.3 µM (active)
same,AC50,[12],0.88 µM (active)
same,AC50,[13],1.04 µM (active)
same,AC50,[14],0.738 µM (active)
COc1cccc(-c2cc(C(=O)NC3=C(Cl)C(=O)c4ccccc4C3=O)ccc2OC)c1,AC50,[9],> 70 µM (inactive)
same,AC50,[10],> 70 µM (inactive)
Nc1nc(=O)n([C@@H]2O[C@H](CO)[C@@H](O)[C@@H]2F)cc1I [FIACITABINE],IC50,[15],> 10 µM (inactive)
same,IC50,[16],> 10 µM (inactive)
